According to patent publication USRE42890E1, “Furazanobenzimidazoles” (Basilea Pharmaceutica AG, priority 2003, dated 2011):
pIC50: −log10 of the molar value. Like-named read-outs stand apart in the source and are kept apart here.

Legend:
MRC5 = experiment: MTS proliferation assay, MRC5; assay type: cell-based; conditions: MRC5, 72 h incubation, read-out: MTS proliferation assay IC 50 MRC5
How it was run: (§1)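 Cells seeded 24 h before treatment in RPMI-1640 with 5% or 10% FCS, then exposed 72 h at 37 °C, 7.5% CO2, to compound at final 10, 3, 1 and 0.3 μM. Viability by MTS, 3 h further incubation, absorbance 492 nm.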

HeLa = experiment: MTS proliferation assay, HeLa; assay type: cell-based, human; conditions: 72 h incubation, read-out: MTS proliferation assay IC 50 HeLa
How it was run: (§2)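 Cells seeded 24 h before treatment in RPMI-1640 with 5% or 10% FCS. Compounds added at 10, 3, 1 and 0.3 μM final and incubated 72 h at 37 °C, 7.5% CO2. MTS reagent then added for 3 h, absorbance read at 492 nm.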

Jurkat = experiment: MTS proliferation assay, Jurkat; assay type: cell-based, human; conditions: 72 h incubation, read-out: MTS proliferation assay IC 50 Jurkat
How it was run: as §2

HT1080 = experiment: MTS proliferation assay, HT1080; assay type: cell-based, human; conditions: HT1080, 72 h incubation, read-out: MTS proliferation assay IC 50 HT1080
How it was run: as §2

Jily = experiment: MTS proliferation assay, Jily; assay type: cell-based; conditions: 72 h incubation, read-out: MTS proliferation assay IC 50 Jily
How it was run: as §1

[1] = test system: adherent cells or suspension cells; experiment: Hoechst 33342 nuclear staining (fraction of apoptotic nuclei); assay type: cell-based; parameters: key: 0 relating to no activity; 1 relating to weak activity comprising less than 70% of the cells; score 2 relating to strong activity comprising more than 70% of the cells

COCOc1ccc(C(=O)Cn2c(-c3nonc3N)nc3ccccc32)cc1OC [Example 15, 4-[1-(3-Methoxy-4-methoxymethoxy-phenacyl)-1H-benzimidazol-2-yl]-furazan-3-ylamine]
pIC50 (MRC5; Homo sapiens): > 8.00 | pIC50 (HeLa; Homo sapiens): 7.00 to 8.00 | pIC50 (Jurkat; Homo sapiens): > 8.00 | pIC50 (HT1080; Homo sapiens, HT-1080): > 8.00 | pIC50 (Jily): > 8.00 | Hoechst 33342 nuclear staining score ([1]; H460, conc 0.01 μm): 2 (score 2 relating to strong activity comprising more than 70% of the cells) | Hoechst 33342 nuclear staining score ([1]; H460, conc 0.1 μm): 2 (score 2 relating to strong activity comprising more than 70% of the cells) | Hoechst 33342 nuclear staining score ([1]; H460, conc 1 μm): 2 (score 2 relating to strong activity comprising more than 70% of the cells) | Hoechst 33342 nuclear staining score ([1]; HeLa, conc 0.01 μm): 1 (1 relating to weak activity comprising less than 70% of the cells) | Hoechst 33342 nuclear staining score ([1]; HeLa, conc 0.1 μm): 2 (score 2 relating to strong activity comprising more than 70% of the cells) | Hoechst 33342 nuclear staining score ([1]; HeLa, conc 1 μm): 2 (score 2 relating to strong activity comprising more than 70% of the cells) | Hoechst 33342 nuclear staining score ([1]; Jily, conc 0.01 μm): 2 (score 2 relating to strong activity comprising more than 70% of the cells) | Hoechst 33342 nuclear staining score ([1]; Jily, conc 0.1 μm): 2 (score 2 relating to strong activity comprising more than 70% of the cells) | Hoechst 33342 nuclear staining score ([1]; Jily, conc 1 μm): 2 (score 2 relating to strong activity comprising more than 70% of the cells) | Hoechst 33342 nuclear staining score ([1]; Jurkat, conc 0.01 μm): 2 (score 2 relating to strong activity comprising more than 70% of the cells) | Hoechst 33342 nuclear staining score ([1]; Jurkat, conc 0.1 μm): 2 (score 2 relating to strong activity comprising more than 70% of the cells) | Hoechst 33342 nuclear staining score ([1]; Jurkat, conc 1 μm): 2 (score 2 relating to strong activity comprising more than 70% of the cells) | Hoechst 33342 nuclear staining score ([1]; MRC5, conc 0.01 μm): 0 | Hoechst 33342 nuclear staining score ([1]; MRC5, conc 0.1 μm): 1 (1 relating to weak activity comprising less than 70% of the cells) | Hoechst 33342 nuclear staining score ([1]; MRC5, conc 1 μm): 2 (score 2 relating to strong activity comprising more than 70% of the cells) | Hoechst 33342 nuclear staining score ([1]; PBLs, conc 0.01 μm): 0 | Hoechst 33342 nuclear staining score ([1]; PBLs, conc 0.1 μm): 0 | Hoechst 33342 nuclear staining score ([1]; PBLs, conc 1 μm): 0

Nc1nonc1-c1nc2ccccc2n1COc1ccc(Cl)cc1 [Example 88]
pIC50 (MRC5): 6.00 to 7.00 | pIC50 (HeLa): 6.00 to 7.00 | pIC50 (Jurkat): 6.00 to 7.00 | pIC50 (HT1080): 6.00 to 7.00 | pIC50 (Jily): 6.00 to 7.00 | Hoechst 33342 nuclear staining score ([1]; HeLa, conc 0.01 μm): 0 | Hoechst 33342 nuclear staining score ([1]; HeLa, conc 0.1 μm): 0 | Hoechst 33342 nuclear staining score ([1]; HeLa, conc 1 μm): 2 (score 2 relating to strong activity comprising more than 70% of the cells) | Hoechst 33342 nuclear staining score ([1]; Jily, conc 0.01 μm): 0 | Hoechst 33342 nuclear staining score ([1]; Jily, conc 0.1 μm): 0 | Hoechst 33342 nuclear staining score ([1]; Jily, conc 1 μm): 1 (1 relating to weak activity comprising less than 70% of the cells) | Hoechst 33342 nuclear staining score ([1]; Jurkat, conc 0.01 μm): 0 | Hoechst 33342 nuclear staining score ([1]; Jurkat, conc 0.1 μm): 0 | Hoechst 33342 nuclear staining score ([1]; Jurkat, conc 1 μm): 2 (score 2 relating to strong activity comprising more than 70% of the cells) | Hoechst 33342 nuclear staining score ([1]; MRC5, conc 0.01 μm): 0 | Hoechst 33342 nuclear staining score ([1]; MRC5, conc 0.1 μm): 0 | Hoechst 33342 nuclear staining score ([1]; MRC5, conc 1 μm): 0 | Hoechst 33342 nuclear staining score ([1]; PBLs, conc 0.01 μm): 0 | Hoechst 33342 nuclear staining score ([1]; PBLs, conc 0.1 μm): 0 | Hoechst 33342 nuclear staining score ([1]; PBLs, conc 1 μm): 0

N#CCCNc1nonc1-c1nc2ccccc2n1CC(=O)c1ccc(N)cc1.O=C(O)C(=O)O [Example 61]
pIC50 (MRC5): 7.00 to 8.00 | pIC50 (HeLa): 7.00 to 8.00 | pIC50 (Jurkat): 7.00 to 8.00 | pIC50 (HT1080): 7.00 to 8.00 | pIC50 (Jily): 7.00 to 8.00 | Hoechst 33342 nuclear staining score ([1]; H460, conc 0.01 μm): 0 | Hoechst 33342 nuclear staining score ([1]; H460, conc 0.1 μm): 2 (score 2 relating to strong activity comprising more than 70% of the cells) | Hoechst 33342 nuclear staining score ([1]; H460, conc 1 μm): 2 (score 2 relating to strong activity comprising more than 70% of the cells) | Hoechst 33342 nuclear staining score ([1]; HeLa, conc 0.01 μm): 0 | Hoechst 33342 nuclear staining score ([1]; HeLa, conc 0.1 μm): 2 (score 2 relating to strong activity comprising more than 70% of the cells) | Hoechst 33342 nuclear staining score ([1]; HeLa, conc 1 μm): 2 (score 2 relating to strong activity comprising more than 70% of the cells) | Hoechst 33342 nuclear staining score ([1]; Jily, conc 0.01 μm): 0 | Hoechst 33342 nuclear staining score ([1]; Jily, conc 0.1 μm): 2 (score 2 relating to strong activity comprising more than 70% of the cells) | Hoechst 33342 nuclear staining score ([1]; Jily, conc 1 μm): 2 (score 2 relating to strong activity comprising more than 70% of the cells) | Hoechst 33342 nuclear staining score ([1]; Jurkat, conc 0.01 μm): 0 | Hoechst 33342 nuclear staining score ([1]; Jurkat, conc 0.1 μm): 2 (score 2 relating to strong activity comprising more than 70% of the cells) | Hoechst 33342 nuclear staining score ([1]; Jurkat, conc 1 μm): 2 (score 2 relating to strong activity comprising more than 70% of the cells) | Hoechst 33342 nuclear staining score ([1]; MRC5, conc 0.01 μm): 0 | Hoechst 33342 nuclear staining score ([1]; MRC5, conc 0.1 μm): 2 (score 2 relating to strong activity comprising more than 70% of the cells) | Hoechst 33342 nuclear staining score ([1]; MRC5, conc 1 μm): 2 (score 2 relating to strong activity comprising more than 70% of the cells) | Hoechst 33342 nuclear staining score ([1]; PBLs, conc 0.01 μm): 0 | Hoechst 33342 nuclear staining score ([1]; PBLs, conc 0.1 μm): 0 | Hoechst 33342 nuclear staining score ([1]; PBLs, conc 1 μm): 0

Nc1nonc1-c1nc2ccccc2n1CC(=O)c1ccc(Cl)nc1 [Example 70]
pIC50 (MRC5): > 8.00 | pIC50 (HeLa): > 8.00 | pIC50 (Jurkat): > 8.00 | pIC50 (HT1080): > 8.00 | pIC50 (Jily): > 8.00 | Hoechst 33342 nuclear staining score ([1]; H460, conc 0.01 μm): 1 (1 relating to weak activity comprising less than 70% of the cells) | Hoechst 33342 nuclear staining score ([1]; H460, conc 0.1 μm): 2 (score 2 relating to strong activity comprising more than 70% of the cells) | Hoechst 33342 nuclear staining score ([1]; H460, conc 1 μm): 2 (score 2 relating to strong activity comprising more than 70% of the cells) | Hoechst 33342 nuclear staining score ([1]; HeLa, conc 0.01 μm): 0 | Hoechst 33342 nuclear staining score ([1]; HeLa, conc 0.1 μm): 2 (score 2 relating to strong activity comprising more than 70% of the cells) | Hoechst 33342 nuclear staining score ([1]; HeLa, conc 1 μm): 2 (score 2 relating to strong activity comprising more than 70% of the cells) | Hoechst 33342 nuclear staining score ([1]; Jily, conc 0.01 μm): 2 (score 2 relating to strong activity comprising more than 70% of the cells) | Hoechst 33342 nuclear staining score ([1]; Jily, conc 0.1 μm): 2 (score 2 relating to strong activity comprising more than 70% of the cells) | Hoechst 33342 nuclear staining score ([1]; Jily, conc 1 μm): 2 (score 2 relating to strong activity comprising more than 70% of the cells) | Hoechst 33342 nuclear staining score ([1]; Jurkat, conc 0.01 μm): 2 (score 2 relating to strong activity comprising more than 70% of the cells) | Hoechst 33342 nuclear staining score ([1]; Jurkat, conc 0.1 μm): 2 (score 2 relating to strong activity comprising more than 70% of the cells) | Hoechst 33342 nuclear staining score ([1]; Jurkat, conc 1 μm): 2 (score 2 relating to strong activity comprising more than 70% of the cells) | Hoechst 33342 nuclear staining score ([1]; MRC5, conc 0.01 μm): 1 (1 relating to weak activity comprising less than 70% of the cells) | Hoechst 33342 nuclear staining score ([1]; MRC5, conc 0.1 μm): 2 (score 2 relating to strong activity comprising more than 70% of the cells) | Hoechst 33342 nuclear staining score ([1]; MRC5, conc 1 μm): 2 (score 2 relating to strong activity comprising more than 70% of the cells) | Hoechst 33342 nuclear staining score ([1]; PBLs, conc 0.01 μm): 0 | Hoechst 33342 nuclear staining score ([1]; PBLs, conc 0.1 μm): 0 | Hoechst 33342 nuclear staining score ([1]; PBLs, conc 1 μm): 0

Nc1nonc1-c1nc2ccccc2n1CC(=O)c1cccs1 [Example 72]
pIC50 (MRC5): 6.00 to 7.00 | pIC50 (HeLa): 6.00 to 7.00 | pIC50 (Jurkat): 6.00 to 7.00 | pIC50 (HT1080): 6.00 to 7.00 | pIC50 (Jily): 6.00 to 7.00 | Hoechst 33342 nuclear staining score ([1]; H460, conc 0.01 μm): 0 | Hoechst 33342 nuclear staining score ([1]; H460, conc 0.1 μm): 0 | Hoechst 33342 nuclear staining score ([1]; H460, conc 1 μm): 2 (score 2 relating to strong activity comprising more than 70% of the cells) | Hoechst 33342 nuclear staining score ([1]; HeLa, conc 0.01 μm): 0 | Hoechst 33342 nuclear staining score ([1]; HeLa, conc 0.1 μm): 0 | Hoechst 33342 nuclear staining score ([1]; HeLa, conc 1 μm): 2 (score 2 relating to strong activity comprising more than 70% of the cells) | Hoechst 33342 nuclear staining score ([1]; Jily, conc 0.01 μm): 0 | Hoechst 33342 nuclear staining score ([1]; Jily, conc 0.1 μm): 0 | Hoechst 33342 nuclear staining score ([1]; Jily, conc 1 μm): 2 (score 2 relating to strong activity comprising more than 70% of the cells) | Hoechst 33342 nuclear staining score ([1]; Jurkat, conc 0.01 μm): 0 | Hoechst 33342 nuclear staining score ([1]; Jurkat, conc 0.1 μm): 1 (1 relating to weak activity comprising less than 70% of the cells) | Hoechst 33342 nuclear staining score ([1]; Jurkat, conc 1 μm): 2 (score 2 relating to strong activity comprising more than 70% of the cells) | Hoechst 33342 nuclear staining score ([1]; MRC5, conc 0.01 μm): 0 | Hoechst 33342 nuclear staining score ([1]; MRC5, conc 0.1 μm): 0 | Hoechst 33342 nuclear staining score ([1]; MRC5, conc 1 μm): 0 | Hoechst 33342 nuclear staining score ([1]; PBLs, conc 0.01 μm): 0 | Hoechst 33342 nuclear staining score ([1]; PBLs, conc 0.1 μm): 0 | Hoechst 33342 nuclear staining score ([1]; PBLs, conc 1 μm): 0
